Laboratory results taken from US9611251B2, “Substituted piperidine compounds and their use as orexin receptor modulators” (Janssen Pharmaceutica NV, priority 2013, dated 2017).

Key:
rat orexin 1 receptor = rat orexin 1 receptor (Rattus norvegicus, UniProt P56718); test: Rat orexin 1 receptor radioligand binding; conditions: rat orexin 1 receptor radioligand binding; averages of 2-20 runs; read-out: rOX1 Ki
Summary of the method: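 Cell-suspension competition binding used 4 nM final tritiated thiazolyl-pyrrolidinyl-methanone radioligand in PBS, ≤0.1% DMSO, with 10 µM almorexant defining nonspecific binding. Filter-bound radioactivity was counted in triplicate. IC50 came from one-site competition fits and was converted to Ki using the predetermined Kd.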

human orexin 1 receptor = human orexin 1 receptor (Homo sapiens, UniProt O43613); test: Human orexin 1 receptor radioligand binding; conditions: human orexin 1 receptor radioligand binding; averages of 2-20 runs; read-out: hOX1 Ki
human orexin 2 receptor = human orexin 2 receptor (Homo sapiens (Human), UniProt O43614); test: Human orexin 2 receptor radioligand binding ([3H]-EMPA); conditions: averages of 2-20 runs, read-out: hOX2 Ki
Sequence of human orexin 2 receptor (O43614 whole entry): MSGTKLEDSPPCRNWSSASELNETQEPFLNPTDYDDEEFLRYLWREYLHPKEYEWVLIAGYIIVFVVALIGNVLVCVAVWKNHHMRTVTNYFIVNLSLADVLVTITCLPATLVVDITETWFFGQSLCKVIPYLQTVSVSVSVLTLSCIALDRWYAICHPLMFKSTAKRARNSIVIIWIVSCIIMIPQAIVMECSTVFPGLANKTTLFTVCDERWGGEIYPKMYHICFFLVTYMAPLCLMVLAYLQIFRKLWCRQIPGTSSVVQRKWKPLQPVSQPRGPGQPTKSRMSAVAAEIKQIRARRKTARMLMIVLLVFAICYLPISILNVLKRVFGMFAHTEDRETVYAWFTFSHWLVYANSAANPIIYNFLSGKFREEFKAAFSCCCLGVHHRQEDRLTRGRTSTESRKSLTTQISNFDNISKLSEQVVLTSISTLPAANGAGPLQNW
Summary of the method: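 Competition binding using homogenized HEK293 cells stably expressing human orexin 2 receptor, [3H]-EMPA at 2 nM final and ≤0.1% DMSO; nonspecific binding set with 10 μM almorexant. Filter-bound radioactivity counted by scintillation; one-site competition IC50 converted to Ki using pre-determined Kd, compounds run in triplicate.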

| SMILES | Ki (rat orexin 1 receptor) [nM] | Ki (human orexin 1 receptor) [nM] | Ki (human orexin 2 receptor) [nM] |
| --- | --- | --- | --- |
| Cc1cccc(C(=O)N2CCC[C@@H](Oc3cnc(C(F)(F)F)cn3)[C@@H]2C)c1-c1ncccn1 [Example 171, (3-methyl-2-(pyrimidin-2-yl)phenyl)((2S,3R)-2-methyl-3-((5-(trifluoromethyl)pyrazin-2-yl)oxy)piperidin-1-yl)methanone] | 34 | 29 | 1100 |
| C[C@H]1[C@H](Oc2ncc(C(F)(F)F)cn2)CCCN1C(=O)c1cc(F)ccc1-c1ncco1 [Example 175, (5-fluoro-2-(oxazol-2-yl)phenyl)((2S,3R)-2-methyl-3-((5-(trifluoromethyl)pyrimidin-2-yl)oxy)piperidin-1-yl)methanone] | 124 | 188 | 4400 |
| Cc1cnc(-n2nccn2)c(C(=O)N2CCC[C@@H](Oc3cnc(C(F)(F)F)cn3)[C@@H]2C)c1 [Example 177, (5-methyl-2-(2H-1,2,3-triazol-2-yl)pyridin-3-yl)((2S,3R)-2-methyl-3-((5-(trifluoromethyl)pyrazin-2-yl)oxy)piperidin-1-yl)methanone] | 238 | 166 | > 10000 |
| C[C@H]1[C@H](Oc2cnc(C(F)(F)F)cn2)CCCN1C(=O)c1cc(F)ccc1-c1ncco1 [Example 179, (5-fluoro-2-(oxazol-2-yl)phenyl)((2S,3R)-2-methyl-3-((5-(trifluoromethyl)pyrazin-2-yl)oxy)piperidin-1-yl)methanone] | 100 | 68 | 1900 |
| Cc1cnc(-c2ncccn2)c(C(=O)N2CCC[C@@H](Oc3ccc(C(F)(F)F)cn3)[C@@H]2C)c1 [Example 211, (5-methyl-2-(pyrimidin-2-yl)pyridin-3-yl)((2S,3R)-2-methyl-3-((5-(trifluoromethyl)pyridin-2-yl)oxy)piperidin-1-yl)methanone] | 120 | 124 | > 10000 |
| C[C@H]1[C@H](Oc2ccc(C(F)(F)F)cn2)CCCN1C(=O)c1c(F)cccc1-c1ncccn1 [Example 212, (2-fluoro-6-(pyrimidin-2-yl)phenyl)((2S,3R)-2-methyl-3-((5-(trifluoromethyl)pyridin-2-yl)oxy)piperidin-1-yl)methanone] | 45 | 132 | 915 |
| Cc1ccc(-c2ncccn2)c(C(=O)N2CCC[C@@H](Oc3ccc(C(F)(F)F)cn3)[C@@H]2C)n1 [Example 213, ((2S,3R)-2-methyl-3-((5-(trifluoromethyl)pyridin-2-yl)oxy)piperidin-1-yl)(6-methyl-3-(pyrimidin-2-yl)pyridin-2-yl)methanone] | 23 | 68 | 217 |
| Cc1cnc(-n2nccn2)c(C(=O)N2CCC[C@@H](Oc3ccc(Cl)cn3)[C@@H]2C)c1 [Example 214, ((2S,3R)-3-((5-chloropyridin-2-yl)oxy)-2-methylpiperidin-1-yl)(5-methyl-2-(2H-1,2,3-triazol-2-yl)pyridin-3-yl)methanone] | 38 | 78 | 5400 |
| Cc1ccc(-n2nccn2)c(C(=O)N2CCC[C@@H](Oc3ccc(Cl)cn3)[C@@H]2C)n1 [Example 215, ((2S,3R)-3-((5-chloropyridin-2-yl)oxy)-2-methylpiperidin-1-yl)(6-methyl-3-(2H-1,2,3-triazol-2-yl)pyridin-2-yl)methanone] | 12 | 35 | 374 |
| Cc1cnc(C(=O)N2CCC[C@@H](Oc3ccc(Cl)cn3)[C@@H]2C)c(-c2ncccn2)c1 [Example 216, ((2S,3R)-3-((5-chloropyridin-2-yl)oxy)-2-methylpiperidin-1-yl)(5-methyl-3-(pyrimidin-2-yl)pyridin-2-yl)methanone] | 52 | 89 | 8200 |
| Cc1cnc(-c2ncccn2)c(C(=O)N2CCC[C@@H](Oc3ccc(Cl)cn3)[C@@H]2C)c1 [Example 217, ((2S,3R)-3-((5-chloropyridin-2-yl)oxy)-2-methylpiperidin-1-yl)(5-methyl-2-(pyrimidin-2-yl)pyridin-3-yl)methanone] | 177 | 154 | 8900 |
| C[C@H]1[C@H](Oc2ccc(Cl)cn2)CCCN1C(=O)c1ncccc1-c1ncccn1 [Example 218, ((2S,3R)-3-((5-chloropyridin-2-yl)oxy)-2-methylpiperidin-1-yl)(3-(pyrimidin-2-yl)pyridin-2-yl)methanone] | 26 | 29 | 495 |

Second part, the compound after the results:

| Ki (rat orexin 1 receptor) [nM] | Ki (human orexin 1 receptor) [nM] | Ki (human orexin 2 receptor) [nM] | SMILES |
| --- | --- | --- | --- |
| 51 | 55 | 1300 | CCOc1ccc(C)nc1C(=O)N1CCC[C@@H](Oc2ccc(C(F)(F)F)cn2)[C@@H]1C [Example 219, (3-ethoxy-6-methylpyridin-2-yl)((2S,3R)-2-methyl-3-((5-(trifluoromethyl)pyridin-2-yl)oxy)piperidin-1-yl)methanone] |
| 23 | 25 | 393 | Cc1cccc(C(=O)N2CCC[C@@H](Oc3ncc(C(F)(F)F)cc3F)[C@@H]2C)c1-c1ncccn1 [Example 220, ((2S,3R)-3-((3-fluoro-5-(trifluoromethyl)pyridin-2-yl)oxy)-2-methylpiperidin-1-yl)(3-methyl-2-(pyrimidin-2-yl)phenyl)methanone] |
| 32 | 44 | 533 | C[C@H]1[C@H](Oc2ncc(C(F)(F)F)cc2F)CCCN1C(=O)c1cc(F)ccc1-c1ncccn1 [Example 221, (5-fluoro-2-(pyrimidin-2-yl)phenyl)((2S,3R)-3-((3-fluoro-5-(trifluoromethyl)pyridin-2-yl)oxy)-2-methylpiperidin-1-yl)methanone] |
| 55 | 91 | 1300 | C[C@H]1[C@H](Oc2ncc(C(F)(F)F)cc2F)CCCN1C(=O)c1ccc(F)cc1-c1ncccn1 [Example 222, (4-fluoro-2-(pyrimidin-2-yl)phenyl)((2S,3R)-3-((3-fluoro-5-(trifluoromethyl)pyridin-2-yl)oxy)-2-methylpiperidin-1-yl)methanone] |
| 35 | 45 | 370 | Cc1ccc(-c2ncccn2)c(C(=O)N2CCC[C@@H](Oc3ncc(C(F)(F)F)cc3F)[C@@H]2C)n1 [Example 223, ((2S,3R)-3-((3-fluoro-5-(trifluoromethyl)pyridin-2-yl)oxy)-2-methylpiperidin-1-yl)(6-methyl-3-(pyrimidin-2-yl)pyridin-2-yl)methanone] |
| 33 | 47 | 576 | C[C@H]1[C@H](Oc2ncc(C(F)(F)F)cc2F)CCCN1C(=O)c1ccccc1-n1nccn1 [Example 224, (2-(2H-1,2,3-triazol-2-yl)phenyl)((2S,3R)-3-((3-fluoro-5-(trifluoromethyl)pyridin-2-yl)oxy)-2-methylpiperidin-1-yl)methanone] |
